Patent US10251959B2, “Oligomer-beta blocker conjugates” (Nektar Therapeutics, priority 2007, dated 2019)

Tests used:
[1] = target: T1, adrenergic, beta-2 (human) (Homo sapiens, UniProt P07550); test: adrenergic, beta-2 (human) binding assay; HL-60 cells, isoproterenol, EIA read-out; type: cell-based; conditions: 100 nM isoproterenol, 20 minutes at room temperature
T1 construct: endogenous in cells; host or cells: HL-60 (human promyelocytic leukemia cells)
Protocol: With respect to beta-2 adrenergic activity, for example, human promyelocytic leukemia cells (HL-60 cells) can be washed and added to physiological buffer. […] Thereafter, 100 nM (final) isoproterenol is added. After twenty minutes at room temperature, cells are centrifuged, buffer removed, and 0.1M HCl is added to stop reaction. […] Pharmacol. 27(1):33-54.
Briefly, human promyelocytic leukemia cells (HL-60 cells) were washed and physiological buffer was added before analysis. To this was added 300 μM IBMX to inhibit phosphodiesterase. […] Cells were then centrifuged, buffer removed and 0.1 M HCL was added to stop the reaction.

[2] = target: T2, adrenergic, beta-1 (human) (Homo sapiens, UniProt P08588); test: adrenergic, beta-1 (human) binding assay; human recombinant Sf9 cells, membranes, Europium time-resolved fluorescence; type: biochemical; conditions: Table 2, 30 nM isoproterenol
T2 construct: expressed in transfected cells; host or cells: Sf9 insect cells (membranes)
Protocol: The compound of interest is added to the membrane and then incubated for ten minutes. Thereafter, 100 nM GTP-Eu is added and incubated for an additional thirty minutes. Europium fluorescence is measured in a time-resolved fluorometer in order to ascertain any functional antagonist activity at the adrenergic beta 1 site. […] Briefly, Human recombinant Sf9 cells were used, wherein reactions were carried out in 50 mM HEPES [pH 7.4] containing 3 mM MgCl2, 0.1 μM GDP, 10 μm/mL Saoonin, and 1 mM DTT (dithiothreitol). The compound of interest was added to the membrane and then incubated for ten minutes at room temperature. Then, 30 nM of isoproterenol [final] to each well was added and allowed to incubate for an additional 30 minutes. Europium fluorescence was measured in a time-resolved fluorometer in order to ascertain any functional antagonist activity at the adrenergic beta-1 site. […] Briefly, Human recombinant Sf9 cells were used, wherein reactions were carried out in 50 mM HEPES [pH 7.4] containing 3 mM MgCl2, 0.1 μM GDP, 10 μm/mL Saoonin, and 1 mM DTT (dithiothreitol). The compound of interest was added to the membrane and then incubated for ten minutes at room temperature. Then, 30 nM of isoproterenol [final] to each well was added and allowed to incubate for an additional 30 minutes. Europium fluorescence was measured in a time-resolved fluorometer in order to ascertain any functional antagonist activity at the adrenergic beta-1 site.

T1 sequence (P07550 whole entry): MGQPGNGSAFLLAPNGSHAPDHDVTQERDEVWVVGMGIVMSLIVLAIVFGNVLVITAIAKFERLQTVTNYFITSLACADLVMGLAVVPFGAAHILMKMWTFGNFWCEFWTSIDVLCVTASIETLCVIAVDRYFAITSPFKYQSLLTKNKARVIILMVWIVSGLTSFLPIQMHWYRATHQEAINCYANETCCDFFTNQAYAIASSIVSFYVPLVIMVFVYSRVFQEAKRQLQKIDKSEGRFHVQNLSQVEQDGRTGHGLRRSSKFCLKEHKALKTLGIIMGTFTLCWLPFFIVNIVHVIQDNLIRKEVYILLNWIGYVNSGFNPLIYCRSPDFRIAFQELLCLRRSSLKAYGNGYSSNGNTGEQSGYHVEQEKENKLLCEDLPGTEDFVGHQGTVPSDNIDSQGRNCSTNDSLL
T2 sequence (P08588 whole entry): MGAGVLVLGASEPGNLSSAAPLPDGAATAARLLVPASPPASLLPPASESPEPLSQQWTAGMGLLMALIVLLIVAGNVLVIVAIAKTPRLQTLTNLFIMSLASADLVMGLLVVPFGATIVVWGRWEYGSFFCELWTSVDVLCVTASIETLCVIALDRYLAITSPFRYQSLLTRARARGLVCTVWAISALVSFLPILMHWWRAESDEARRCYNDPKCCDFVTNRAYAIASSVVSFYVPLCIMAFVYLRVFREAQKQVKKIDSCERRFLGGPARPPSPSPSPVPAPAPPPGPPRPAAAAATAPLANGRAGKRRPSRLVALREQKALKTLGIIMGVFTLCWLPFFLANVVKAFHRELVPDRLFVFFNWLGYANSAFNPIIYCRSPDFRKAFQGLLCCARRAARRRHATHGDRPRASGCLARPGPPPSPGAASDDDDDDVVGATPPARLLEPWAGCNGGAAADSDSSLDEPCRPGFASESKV

## COCCOCCOCCOCCOCCOCCOCCO[C@@H](CNC(C)C)COc1cccc2ccccc12 [Propranolol Conjugate D]
[1]; Table 1, 300 μM IBMX
  IC50: 378 nM

## COCCOCCOCCOCCOCCO[C@@H](CNC(C)C)COc1cccc2ccccc12 [Propranolol Conjugate C]
[2]
  IC50: 4960 nM
[1]; Table 1, 300 μM IBMX
  IC50: 339 nM

## COCCOCCOCCOCCOCCOCCOCCOCC(=O)O[C@@H](CNC(C)C)COc1cccc2ccccc12 [Propranolol Conjugate E]
[1]; Table 1, 300 μM IBMX
  IC50: 1680 nM

## COCCOCCOCCOCCOCCOCCOCCOCCOC(CNC(C)(C)C)COc1nsnc1N1CCOCC1 (stereo not shown) [Timolol Compound D]
[1]; Table 3, 300 μM IBMX
  IC50: 629 nM

## COCCOCCOCCOCC(=O)O[C@@H](CNC(C)C)COc1cccc2ccccc12 [Propranolol Conjugate F]
[2]
  IC50: 5390 nM
[1]; Table 1, 300 μM IBMX
  IC50: 1660 nM

## COCCOCCOCCOCC(=O)O[C@H](COc1cccc2ccccc12)CN(C(=O)COCCOCCOCCOC)C(C)C [Propranolol Conjugate B]
[2]
  IC50: 3810 nM
[1]; Table 1, 300 μM IBMX
  IC50: 13200 nM

## COCCOCCOCCO[C@@H](CNC(C)C)COc1cccc2ccccc12 [Propranolol Conjugate A]
[2]
  IC50: 1790 nM
[1]; Table 1, 300 μM IBMX
  IC50: 112 nM

## COCCOCCOCCOCCOCCOC(CNC(C)(C)C)COc1nsnc1N1CCOCC1 (stereo not shown) [Timolol Compound B]
[1]; Table 3, 300 μM IBMX
  IC50: 1290 nM

## COCCOCCOCCOCCOCCOCCOCCOC(CNC(C)(C)C)COc1nsnc1N1CCOCC1 (stereo not shown) [Timolol Compound C]
[1]; Table 3, 300 μM IBMX
  IC50: 603 nM
